Assay results as given in patent US4684664A, “Derivatives of β-(4-isocyano-1,2,3,4-diepoxycyclopentyl) acrylic acid” (Kureha Kagaku Kogyo Kabushiki Kaisha, priority 1984, dated 1987).
Converted amounts (≈) assume the structure as drawn.

What was measured:
Type in all cases: cell-based
[1] = test system: Staphylococcus aureus FDA 209PJc-1; experiment: Antibacterial activity, agar-dilution MIC, organism No. 1; details: Staphylococcus aureus, FDA209PJC1; Organism No. 1, bouillon-agar; read-out: Minimum Inhibitory Concentration
Outline: (§1)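 Endpoint: MIC in μg/ml of culture medium. Method: agar dilution. Medium: bouillon agar.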

[2] = test system: Staphylococcus aureus Terajima; experiment: Antibacterial activity, agar-dilution MIC, organism No. 2; details: Staphylococcus aureus; Organism No. 2, bouillon-agar; read-out: Minimum Inhibitory Concentration
Outline: as §1

[3] = test system: Staphylococcus aureus MS 353; experiment: Antibacterial activity, agar-dilution MIC, organism No. 3; details: Staphylococcus aureus, MS353; Organism No. 3, bouillon-agar; read-out: Minimum Inhibitory Concentration
Outline: as §1

[4] = test system: Streptococcus pyogenes Cook; experiment: Antibacterial activity, agar-dilution MIC, organism No. 4; details: Streptococcus pyogenes; Organism No. 4, bouillon-agar; read-out: Minimum Inhibitory Concentration
Outline: as §1

[5] = test system: Escherichia coli NIHJ-JC-2; experiment: Antibacterial activity, agar-dilution MIC, organism No. 5; details: Escherichia coli, NIHJJC2; Organism No. 5, bouillon-agar; read-out: Minimum Inhibitory Concentration
Outline: as §1

[6] = test system: Escherichia coli K12 C600 IAM 1264; experiment: Antibacterial activity, agar-dilution MIC, organism No. 6; details: Escherichia coli, IAM1264; Organism No. 6, bouillon-agar; read-out: Minimum Inhibitory Concentration
Outline: as §1

[7] = test system: Klebsiella pneumoniae PCI-602; experiment: Antibacterial activity, agar-dilution MIC, organism No. 7; details: Klebsiella pneumoniae, PCI602; Organism No. 7, bouillon-agar; read-out: Minimum Inhibitory Concentration
Outline: as §1

[8] = test system: Salmonella typhimurium IID 971; experiment: Antibacterial activity, agar-dilution MIC, organism No. 8; details: Salmonella enterica; Organism No. 8, bouillon-agar; read-out: Minimum Inhibitory Concentration
Outline: as §1

[9] = test system: Salmonella typhi 901; experiment: Antibacterial activity, agar-dilution MIC, organism No. 9; details: Salmonella enterica, TYPHI, read-out: Minimum Inhibitory Concentration
Outline: as §1

[10] = test system: Salmonella paratyphi-A 1015; experiment: Antibacterial activity, agar-dilution MIC, organism No. 10; details: Salmonella enterica, PARATYPHI, read-out: Minimum Inhibitory Concentration
Outline: as §1

[11] = test system: Salmonella shottmuelleri 8006; experiment: Antibacterial activity, agar-dilution MIC, organism No. 11; details: Salmonella, 8006; Organism No. 11, bouillon-agar; read-out: Minimum Inhibitory Concentration
Outline: as §1

[12] = test system: Salmonella enteritidis G 14; experiment: Antibacterial activity, agar-dilution MIC, organism No. 12; details: Salmonella enterica, ENTERITIDIS; Organism No. 12, bouillon-agar; read-out: Minimum Inhibitory Concentration
Outline: as §1

[13] = test system: Serratia marcescens IAM 1184; experiment: Antibacterial activity, agar-dilution MIC, organism No. 13; details: Serratia marcescens, IAM1184; Organism No. 13, bouillon-agar; read-out: Minimum Inhibitory Concentration
Outline: as §1

[14] = test system: Bacillus subtilis ATCC 6633; experiment: Antibacterial activity, agar-dilution MIC, organism No. 14; details: Bacillus subtilis, ATCC6633; Organism No. 14, bouillon-agar; read-out: Minimum Inhibitory Concentration
Outline: as §1

[15] = test system: Pseudomonas aeruginosa IFO 3445; experiment: Antibacterial activity, agar-dilution MIC, organism No. 15; details: Pseudomonas aeruginosa, IFO3445; Organism No. 15, bouillon-agar; read-out: Minimum Inhibitory Concentration
Outline: as §1

[16] = test system: Pseudomonas aeruginosa NCTC 10490; experiment: Antibacterial activity, agar-dilution MIC, organism No. 16; details: Pseudomonas aeruginosa, NCTC10490; Organism No. 16, bouillon-agar; read-out: Minimum Inhibitory Concentration
Outline: as §1

[17] = test system: Pseudomonas aeruginosa PAO 1; experiment: Antibacterial activity, agar-dilution MIC, organism No. 17; details: Pseudomonas aeruginosa, PAO1; Organism No. 17, bouillon-agar; read-out: Minimum Inhibitory Concentration
Outline: as §1

[18] = test system: Proteus morganii IFO 3848; experiment: Antibacterial activity, agar-dilution MIC, organism No. 18; details: Morganella morganii, IFO3848; Organism No. 18, bouillon-agar; read-out: Minimum Inhibitory Concentration
Outline: as §1

[19] = test system: Proteus mirabilis IFO 3849; experiment: Antibacterial activity, agar-dilution MIC, organism No. 19; details: Proteus mirabilis, IFO3849; Organism No. 19, bouillon-agar; read-out: Minimum Inhibitory Concentration
Outline: as §1

[20] = test system: Proteus vulgaris OX-19; experiment: Antibacterial activity, agar-dilution MIC, organism No. 20; details: Proteus vulgaris, OX19; Organism No. 20, bouillon-agar; read-out: Minimum Inhibitory Concentration
Outline: as §1

[21] = test system: Proteus vulgaris HX-19; experiment: Antibacterial activity, agar-dilution MIC, organism No. 21; details: Proteus vulgaris, HX19; Organism No. 21, bouillon-agar; read-out: Minimum Inhibitory Concentration
Outline: as §1

[22] = test system: Proteus rettgeri IFO 3850; experiment: Antibacterial activity, agar-dilution MIC, organism No. 22; details: Providencia rettgeri, IFO3850; Organism No. 22, bouillon-agar; read-out: Minimum Inhibitory Concentration
Outline: as §1

[23] = test system: Enterobacter aerogenes ATCC 13048; experiment: Antibacterial activity, agar-dilution MIC, organism No. 23; details: Klebsiella aerogenes, ATCC13048; Organism No. 23, bouillon-agar; read-out: Minimum Inhibitory Concentration
Outline: as §1

[24] = test system: Enterobacter cloacae 963; experiment: Antibacterial activity, agar-dilution MIC, organism No. 24; details: Enterobacter cloacae, 963; Organism No. 24, bouillon-agar; read-out: Minimum Inhibitory Concentration
Outline: as §1

[25] = test system: Micrococcus luteus ATCC 9341; experiment: Antibacterial activity, agar-dilution MIC, organism No. 25; details: Micrococcus luteus, ATCC9341; Organism No. 25, bouillon-agar; read-out: Minimum Inhibitory Concentration
Outline: as §1

[26] = test system: Streptococcus pyogenes IFO 3340; experiment: Antibacterial activity, agar-dilution MIC, organism No. 26; details: Streptococcus pyogenes, IFO3340; Organism No. 26, bouillon-agar; read-out: Minimum Inhibitory Concentration
Outline: as §1

[27] = test system: Streptococcus faecium IFO 3826; experiment: Antibacterial activity, agar-dilution MIC, organism No. 27; details: Enterococcus faecium, IFO3826; Organism No. 27, bouillon-agar; read-out: Minimum Inhibitory Concentration
Outline: as §1

[28] = test system: Mycoplasma pneumoniae IID817; experiment: Antimycoplasmal activity, MIC by phenol red colour change, organism No. 28; details: Mycoplasma, IID817; Organism No. 28, PPLO broth + 1% glucose, 37° C.; read-out: Minimum Inhibitory Concentration (MIC)
Protocol: Mycoplasma pneumoniae IID817 was used as the test microorganism in a culture medium prepared by adding 1% of glucose to "PPLO broth (manufactured by Difco Co.) liquid culture medium" at 37° C. with phenol red as an indicator, thereby culturing the test microorganism.

[29] = test system: Candida albicans IAM 4905; experiment: Antifungal activity, agar-dilution MIC, organism No. 29; details: Candida albicans, IAM4905; Organism No. 29, bouillon-agar; read-out: Minimum Inhibitory Concentration
Outline: as §1

[30] = test system: Aspergillus niger IFO 6342; experiment: Antifungal activity, agar-dilution MIC, organism No. 30; details: Aspergillus niger, IFO6342; Organism No. 30, bouillon-agar; read-out: Minimum Inhibitory Concentration
Outline: as §1

Compound	MIC [1]	MIC [2]	MIC [3]	MIC [4]	MIC [5]	MIC [6]	MIC [7]	MIC [8]	MIC [9]	MIC [10]	MIC [11]	MIC [12]	MIC [13]	MIC [14]	MIC [15]	MIC [16]	MIC [17]	MIC [18]	MIC [19]	MIC [20]	further results
[C-]#[N+]C12CC3(/C=C/C(=O)Nc4ccc(S(N)(=O)=O)cc4)OC3C1O2 (stereo not drawn) [compound 63]	3.13 µg/mL (≈ 9.01 µM)	25 µg/mL (≈ 72 µM)	3.13 µg/mL (≈ 9.01 µM)	> 200 µg/mL	> 200 µg/mL	> 200 µg/mL	3.13 µg/mL (≈ 9.01 µM)	100 µg/mL (≈ 288 µM)	50 µg/mL (≈ 144 µM)	12.5 µg/mL (≈ 36 µM)	12.5 µg/mL (≈ 36 µM)	25 µg/mL (≈ 72 µM)	> 200 µg/mL	50 µg/mL (≈ 144 µM)	> 200 µg/mL	> 200 µg/mL	> 200 µg/mL	3.13 µg/mL (≈ 9.01 µM)	> 200 µg/mL	1.56 µg/mL (≈ 4.49 µM)	MIC [21]: 1.56 µg/mL (≈ 4.49 µM); MIC [22]: 6.25 µg/mL (≈ 18 µM); MIC [23]: > 200 µg/mL; MIC [24]: > 200 µg/mL; MIC [25]: 25 µg/mL (≈ 72 µM); MIC [26]: 6.25 µg/mL (≈ 18 µM); MIC [27]: > 200 µg/mL; MIC [28]: < 0.2 µg/mL; MIC [29]: 100 µg/mL (≈ 288 µM); MIC [30]: 100 µg/mL (≈ 288 µM)
[C-]#[N+]C12CC3(/C=C/C(=O)OCc4cccc([N+](=O)[O-])c4)OC3C1O2 (stereo not drawn) [compound 14]	200 µg/mL (≈ 609 µM)	200 µg/mL (≈ 609 µM)	200 µg/mL (≈ 609 µM)	> 200 µg/mL	> 200 µg/mL	> 200 µg/mL	200 µg/mL (≈ 609 µM)	> 200 µg/mL	200 µg/mL (≈ 609 µM)	200 µg/mL (≈ 609 µM)	200 µg/mL (≈ 609 µM)	> 200 µg/mL	> 200 µg/mL	200 µg/mL (≈ 609 µM)	> 200 µg/mL	> 200 µg/mL	> 200 µg/mL	200 µg/mL (≈ 609 µM)	> 200 µg/mL	200 µg/mL (≈ 609 µM)	MIC [21]: 12.5 µg/mL (≈ 38.1 µM); MIC [22]: > 200 µg/mL; MIC [23]: > 200 µg/mL; MIC [24]: > 200 µg/mL; MIC [25]: 0.78 µg/mL (≈ 2.38 µM); MIC [26]: > 200 µg/mL; MIC [27]: 200 µg/mL (≈ 609 µM); MIC [28]: 3.13 µg/mL; MIC [29]: 12.5 µg/mL (≈ 38.1 µM); MIC [30]: 25 µg/mL (≈ 76.2 µM)
[C-]#[N+]C12CC3(/C=C/C(=O)NC4CCCCC4)OC3C1O2 (stereo not drawn) [compound 20]	1.56 µg/mL (≈ 5.69 µM)	12.5 µg/mL (≈ 45.6 µM)	1.56 µg/mL (≈ 5.69 µM)	6.25 µg/mL (≈ 22.8 µM)	> 200 µg/mL	> 200 µg/mL	0.39 µg/mL (≈ 1.42 µM)	100 µg/mL (≈ 365 µM)	6.25 µg/mL (≈ 22.8 µM)	6.25 µg/mL (≈ 22.8 µM)	3.13 µg/mL (≈ 11.4 µM)	12.5 µg/mL (≈ 45.6 µM)	> 200 µg/mL	50 µg/mL (≈ 182 µM)	> 200 µg/mL	> 200 µg/mL	> 200 µg/mL	0.78 µg/mL (≈ 2.84 µM)	> 200 µg/mL	0.78 µg/mL (≈ 2.84 µM)	MIC [21]: 0.1 µg/mL (≈ 0.365 µM); MIC [22]: > 200 µg/mL; MIC [23]: > 200 µg/mL; MIC [24]: > 200 µg/mL; MIC [25]: < 0.05 µg/mL; MIC [26]: 6.25 µg/mL (≈ 22.8 µM); MIC [27]: 12.5 µg/mL (≈ 45.6 µM); MIC [28]: < 0.2 µg/mL; MIC [29]: 1.56 µg/mL (≈ 5.69 µM); MIC [30]: 6.25 µg/mL (≈ 22.8 µM)
